Test results: patent US20230210819A1, “USE OF BENZISOSELAZOLE DERIVATIVE FOR ANTI-CORONAVIRUS AND CONTROL OF INTERSTITIAL LUNG DISEASE (ILD) RELATED TO CORONAVIRUS” (SHANGHAI YUANXI MEDICINE CORP., priority 2020, published 2023)
Like-named read-outs stand apart in the source and are kept apart here.

What was measured:
[1] = target: 2019-nCoV 3CLpro protein (Severe acute respiratory syndrome coronavirus 2, UniProt P0DTD1); assay: 2019-nCoV 3CLpro protein activity, fluorescence method with fluorescent polypeptide substrate; type: biochemical
[2] = test system: bleomycin-induced mouse lung disease model; assay: Lung and spleen coefficients, 24-h modeling; type: in vivo, C57 mice; conditions: 90 mg/kg, effect better than that of Dex
Description: Animals of 24-h modeling were randomly divided into 5 groups according to the table below, 3 animals per control group and 5 animals per test group.
Drug administration began 24 h or 7 d after modeling. […] The day of the first administration was counted as D1, the next day as D2, and so forth. The normal groups and Model groups were given 200 µL of normal saline daily by gavage administration.
Method: after being euthanized, the animals were dissected, and the heart, liver, spleen, lung and kidney were weighed.
In this experiment, 105 C57 mice were randomly selected and subjected to organ drip administration of a single dose of bleomycin at 2.5 mg/kg for 24 h or 7 d for induction. After 7 days of induction, 3 model mice were randomly selected and dissected to determine whether the modeling was successful. After modeling, the survival of the mice was recorded. The living states of the mice were observed and their body weight was measured at a fixed time.
A normal control group comprised 3 mice.

## O=c1c2ccccc2[se]n1CCn1[se]c2ccccc2c1=O
[1]; read-out: IC50 (converted)
  IC50: 1230 nM

## O=c1c2ccccc2[se]n1CCCn1[se]c2ccccc2c1=O
[1]
  IC50: 115 nM

## O=c1c2ccccc2[se]n1CCCCCn1[se]c2ccccc2c1=O
[1]
  IC50: 86.2 nM

## O=c1c2ccccc2[se]n1CCCCCCCCCCCCn1[se]c2ccccc2c1=O
[1]
  IC50: 35.6 nM

## O=c1c2cc(O)ccc2[se]n1CCCCn1[se]c2ccc(O)cc2c1=O
[1]
  IC50: 41.5 nM

## O=c1c2ccccc2[se]n1-c1ccc(S(=O)(=O)n2[se]c3ccccc3c2=O)cc1
[1]
  IC50: 1240 nM

## Cc1[nH]c(/C=C2\C(=O)Nc3c(F)cccc32)c(C)c1C(=O)OCCn1[se]c2ccccc2c1=O
[1]
  IC50: 1640 nM

## O=c1c2ccccc2[se]n1CCSSCCn1[se]c2ccccc2c1=O
[1]
  IC50: 1460 nM

## O=c1c2ccccc2[se]n1CCCCn1[se]c2ccccc2c1=O [BS1801]
[2]
  Effect on lung coefficient (in words): significantly reduce increases in the lung coefficient

## O=c1c2ccccc2[se]n1CCCCn1[se]c2ccccc2c1=O [drawing 188]
[1]
  IC50: 111 nM
